The assay concerns the target T1, α1A-adrenoceptor (Homo sapiens, UniProt P35348).
T1 construct: gene ADRA1A
T1 sequence (P35348 1-466): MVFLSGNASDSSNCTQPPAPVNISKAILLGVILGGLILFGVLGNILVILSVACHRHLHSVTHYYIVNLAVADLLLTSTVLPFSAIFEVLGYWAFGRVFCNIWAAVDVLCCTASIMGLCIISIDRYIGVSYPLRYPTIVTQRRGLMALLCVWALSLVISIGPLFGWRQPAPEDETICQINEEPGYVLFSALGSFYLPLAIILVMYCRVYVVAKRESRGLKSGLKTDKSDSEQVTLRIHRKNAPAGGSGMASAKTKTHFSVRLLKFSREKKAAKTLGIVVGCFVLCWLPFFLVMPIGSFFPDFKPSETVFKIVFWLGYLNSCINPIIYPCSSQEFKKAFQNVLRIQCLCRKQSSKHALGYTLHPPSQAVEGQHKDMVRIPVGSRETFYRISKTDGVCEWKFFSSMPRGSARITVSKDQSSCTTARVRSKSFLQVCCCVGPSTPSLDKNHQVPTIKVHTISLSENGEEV
The assay can be described thus: aequorin luminescence calcium assay, antagonist mode against phenylephrine, cells stably expressing human α1A-adrenoceptor. It is filed as cell-based.

Structures can show the parent of a compound that is named as a salt.

One may read the IC50 as the midpoint of a concentration-inhibition curve. As for `COc1ccccc1N1CCN(CCCOc2c(C)cccc2C)CC1` [MH-76, 1-[3-(2,6-dimethylphenoxy)propyl]-4-(2-methoxyphenyl)piperazine hydrochloride], the IC50 is 1.42 nM.

Values taken from publication PMC8157569 (Pharmaceuticals, 2021).
